pIC50: −log10 of the molar value.

From US12060347B2 (BRISTOL-MYERS SQUIBB COMPANY, priority 2016, dated 2024) come the findings set out here.

This assay deals with T1, human PAR4 (Homo sapiens, UniProt Q96RI0).
T1 construct: expressed in transfected cells; host or cells: HEK293 PAR4 Clone 1.2A (BMS Arctic ID 383940)
T1 sequence (Q96RI0 18-385): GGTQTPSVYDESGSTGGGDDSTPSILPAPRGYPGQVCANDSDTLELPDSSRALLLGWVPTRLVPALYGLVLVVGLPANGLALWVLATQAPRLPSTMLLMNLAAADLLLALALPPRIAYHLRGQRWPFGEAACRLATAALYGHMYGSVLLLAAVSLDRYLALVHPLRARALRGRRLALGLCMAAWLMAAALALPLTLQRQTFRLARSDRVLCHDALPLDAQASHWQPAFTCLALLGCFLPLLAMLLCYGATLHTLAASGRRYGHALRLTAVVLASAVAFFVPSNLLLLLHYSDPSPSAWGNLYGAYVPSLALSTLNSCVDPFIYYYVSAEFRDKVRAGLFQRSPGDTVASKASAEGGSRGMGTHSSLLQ
The assay is described as follows: PAR4 FLIPR assay: antagonism of agonist-peptide-induced calcium mobilization in PAR4-expressing HEK293 cells. The class given is cell-based. Conditions: H-Ala-Phe(4-F)-[…]NH2-induced intracellular calcium mobilization, 11-point curves.

In the case of `CCOc1cnc2c(-c3nc4cc(F)c(O[C@@H](C)[C@@H](C)OC(=O)Nc5cnc(OC[C@H](C)O)nc5)cc4s3)cc(C)cc2n1` [Example 582, (2R,3S)-3-((2-(2-ethoxy-7-methylquinoxalin-5-yl)-5-fluorobenzo[d]thiazol-6-yl)oxy)butan-2-yl (2-((S)-2-hydroxypropoxy)pyrimidin-5-yl)carbamate], the pIC50 was 8.28.

On to `COc1cnc2c(-c3nc4cc(F)c(OC[C@@H](C)OC(=O)Nc5cnc(CCO)nc5)cc4s3)cc(C)cc2n1` [Example 564, (R)-1-((5-fluoro-2-(2-methoxy-7-methylquinoxalin-5-yl)benzo[d]thiazol-6-yl)oxy)propan-2-yl (2-(2-hydroxyethyl)pyrimidin-5-yl)carbamate], for which the pIC50 is 8.43.

With `COCc1cnc2c(-c3nc4c(C)cc(OCCNS(=O)(=O)c5ccc(F)cc5)cc4s3)cc(C(=O)N3CCCCC3)cc2n1` [Example 227, 4-fluoro-N-(2-((2-(2-(methoxymethyl)-7-(piperidine-1-carbonyl)quinoxalin-5-yl)-4-methylbenzo[d]thiazol-6-yl)oxy)ethyl)benzenesulfonamide], the pIC50 was 6.80.

Regarding `COc1cnc2c(-c3nc4cc(F)c(O[C@@H](C)[C@@H](C)OC(=O)Nc5cnc(OC[C@H](C)O)nc5)cc4s3)cc(C)cc2n1` [Example 581, (2R,3S)-3-((5-fluoro-2-(2-methoxy-7-methylquinoxalin-5-yl)benzo[d]thiazol-6-yl)oxy)butan-2-yl (2-((S)-2-hydroxypropoxy)pyrimidin-5-yl)carbamate], the pIC50 is 8.39.

In the case of `COc1cnc2c(-c3nc4ccc(OCCNS(=O)(=O)c5ccccc5)cc4s3)cc(C)cc2n1` [Example 72, N-(2-(2-(2-methoxy-7-methylquinoxalin-5-yl)benzo[d]thiazol-6-yloxy)ethyl)benzenesulfonamide], the pIC50 is 9.00.

As to `COCc1cnc2c(-c3nc4c(C)c(F)c(OC)nc4s3)cc(C)cc2n1` [Example 763, 6-fluoro-5-methoxy-2-(2-(methoxymethyl)-7-methylquinoxalin-5-yl)-7-methylthiazolo[5,4-b]pyridine], the negative-log IC50 (pIC50) was 8.40.

For the compound `COc1ccc(OC(=O)NCCOc2cc(C)c3nc(-c4cc(C)cc5nc(OC)cnc45)sc3n2)cc1` [Example 662, 4-methoxyphenyl (2-((2-(2-methoxy-7-methylquinoxalin-5-yl)-7-methylthiazolo[5,4-b]pyridin-5-yl)oxy)ethyl)carbamate], the pIC50 was 7.11.

On to `COc1cc(C(O)C(C)(C)C)c2nc(-c3cc(Cl)cc4nc(OC)cnc34)sc2c1` (centres unmarked) [Example 636, 1-(2-(7-chloro-2-methoxyquinoxalin-5-yl)-6-methoxybenzo[d]thiazol-4-yl)-2,2-dimethylpropan-1-ol], for which the pIC50 was 8.52.

With `COc1cnc2c(-c3nc4cc(F)c(O[C@@H](C)[C@@H](C)OC(=O)Nc5cnc(C(=O)N6CCOCC6)nc5)cc4s3)cc(C)cc2n1` [Example 437, (2R,3S)-3-((5-fluoro-2-(2-methoxy-7-methylquinoxalin-5-yl)benzo[d]thiazol-6-yl)oxy)butan-2-yl (2-(morpholine-4-carbonyl)pyrimidin-5-yl)carbamate], the pIC50 is 8.31.

On to `CNCCOc1ccc2oc(-c3cc(C)cc4nc(OC(F)F)cnc34)cc2c1` [Example 54, 2-(2-(2-(difluoromethoxy)-7-methylquinoxalin-5-yl)benzofuran-5-yloxy)-N-methylethanamine], for which the negative logarithm of the IC50 (pIC50) is 7.03.

Take `COc1cnc2c(-c3nc4c(C)cc(OCCNS(=O)(=O)c5ccc(F)cc5)cc4s3)cc(C)cc2n1` [Example 26, 4-fluoro-N-(2-((2-(2-methoxy-7-methylquinoxalin-5-yl)-4-methylbenzo[d]thiazol-6-yl)oxy)ethyl)benzenesulfonamide]: the pIC50 was 8.48.

With `COCc1cnc2c(-c3nc4c(C)cc(OC)cc4s3)cc(C)cc2n1` [Example 183, 6-methoxy-2-(2-(methoxymethyl)-7-methylquinoxalin-5-yl)-4-methylbenzo[d]thiazole], the pIC50 was 9.22.

Consider `COc1cnc2c(-c3nc4c(Cl)c(F)c(OC[C@@H](C)OC(=O)Nc5cnccc5C)cc4s3)cc(C)cc2n1` [Example 376, (R)-1-((4-chloro-5-fluoro-2-(2-methoxy-7-methylquinoxalin-5-yl)benzo[d]thiazol-6-yl)oxy)propan-2-yl (4-methylpyridin-3-yl) carbamate], for which the negative-log IC50 (pIC50) is 7.14.

In the case of `COc1cnc2c(-c3nc4c(Cl)c(F)c(OC)cc4s3)c(C)c(C)cc2n1` [Example 216, 4-chloro-5-fluoro-6-methoxy-2-(2-methoxy-6,7-dimethylquinoxalin-5-yl)benzo[d] thiazole], the pIC50 is 6.80.

Regarding `Cc1cc(-c2nc3ccccc3s2)c2ncc(OC(F)F)nc2c1` [Example 4, 2-(2-(difluoromethoxy)-7-methylquinoxalin-5-yl)benzo[d]thiazole], the pIC50 is 7.77.

As to `COc1cnc2c(-c3nc4c(Cl)c(F)c(OCCOC(=O)Nc5cnn(C)c5)cc4s3)cc(C)cc2n1` [Example 365, 2-((4-chloro-5-fluoro-2-(2-methoxy-7-methylquinoxalin-5-yl)benzo[d]thiazol-6-yl)oxy) ethyl (1-methyl-1H-pyrazol-4-yl)carbamate], the negative logarithm of the IC50 (pIC50) was 8.60.

With `CCOc1cnc2c(-c3nc4cc(F)c(O[C@@H](C)[C@@H](C)OC(=O)Nc5ccc(C(=O)NCC(C)(C)O)nc5)cc4s3)cc(C)cc2n1` [Example 527, (2R,3S)-3-((2-(2-ethoxy-7-methylquinoxalin-5-yl)-5-fluorobenzo[d]thiazol-6-yl)oxy)butan-2-yl (6-((2-hydroxy-2-methylpropyl)carbamoyl)pyridin-3-yl)carbamate], the pIC50 was 8.85.

For the compound `COc1cnc2c(-c3nc4cc(F)c(OC[C@@H](C)OC(=O)Nc5ccnc(OCCC(C)(C)O)c5)cc4s3)cc(C)cc2n1` [Example 567, (R)-1-((5-fluoro-2-(2-methoxy-7-methylquinoxalin-5-yl)benzo[d]thiazol-6-yl)oxy)propan-2-yl (2-(3-hydroxy-3-methylbutoxy)pyridin-4-yl)carbamate], the pIC50 is 8.23.

As to `COc1cc(C(O)Cc2ccccc2)c2nc(-c3cc(C)cc4nc(OC)cnc34)sc2c1` (centres unmarked) [Example 631, 1-(6-methoxy-2-(2-methoxy-7-methylquinoxalin-5-yl)benzo[d]thiazol-4-yl)-2-phenylethanol], the pIC50 is 8.28.

For `COc1cnc2c(-c3nc4c(F)c(F)c(OC)cc4s3)cc(CO)cc2n1` [Example 220, (8-(4,5-difluoro-6-methoxybenzo[d]thiazol-2-yl)-3-methoxyquinoxalin-6-yl)methanol], the negative-log IC50 (pIC50) is 8.59.

Regarding `COc1cc(C(C)O)c2nc(-c3cc(C)cc4nc(OC)cnc34)sc2c1` (centres unmarked) [Example 677, 1-(6-methoxy-2-(2-methoxy-7-methylquinoxalin-5-yl)benzo[d]thiazol-4-yl)ethan-1-ol], the pIC50 is 8.42.

For `COc1cnc2c(-c3nc4cc(F)c(O[C@@H](C)[C@@H](C)OC(=O)Nc5cnc(OCCO)nc5)cc4s3)cc(Cl)cc2c1` [Example 512, (2R,3S)-3-((2-(6-chloro-3-methoxyquinolin-8-yl)-5-fluorobenzo[d]thiazol-6-yl)oxy)butan-2-yl (2-(2-hydroxyethoxy)pyrimidin-5-yl)carbamate], the pIC50 is 8.92.

As for `COc1cnc2c(-c3nc4cc(F)c(O[C@@H](C)[C@@H](C)OC(=O)Nc5ccc6[nH]c(=O)oc6c5)nc4s3)cc(Cl)cc2c1` [Example 777, (2R,3S)-3-((2-(6-chloro-3-methoxyquinolin-8-yl)-6-fluorothiazolo[5,4-b]pyridin-5-yl)oxy) butan-2-yl (2-oxo-2,3-dihydrobenzo[d]oxazol-6-yl)carbamate], the pIC50 is 8.07.

For the compound `COc1cnc2c(-c3nc4c(Cl)c(F)c(OCCOC(=O)Nc5ccc(C#N)nc5)cc4s3)cc(C)cc2n1` [Example 395, 2-((4-chloro-5-fluoro-2-(2-methoxy-7-methylquinoxalin-5-yl)benzo[d]thiazol-6-yl)oxy)ethyl (6-cyanopyridin-3-yl)carbamate], the pIC50 is 8.24.

Turning to `COCc1cnc2c(-c3nc4c(Cl)cc(OCCNS(=O)(=O)c5ccccc5)cc4s3)cc(C)cc2n1` [Example 99, N-(2-(4-chloro-2-(2-(methoxymethyl)-7-methylquinoxalin-5-yl)benzo[d]thiazol-6-yloxy)ethyl)benzenesulfonamide], the pIC50 is 9.22.

With `COCc1cnc2c(-c3nc4cc(CO)c(OC)cc4s3)cc(C)cc2n1` [Example 312, (6-methoxy-2-(2-(methoxymethyl)-7-methylquinoxalin-5-yl)benzo[d]thiazol-5-yl) methanol], the pIC50 is 8.17.

For the compound `COc1cnc2c(-c3nc4cc(F)c(OC[C@@H](C)OC(=O)Nc5ccccc5)cc4s3)cc(C)cc2n1` [Example 411, (R)-1-((5-fluoro-2-(2-methoxy-7-methylquinoxalin-5-yl)benzo[d]thiazol-6-yl)oxy)propan-2-yl phenylcarbamate], the pIC50 is 8.36.

`COc1cnc2c(-c3nc4cc(F)c(O[C@@H](C)[C@@H](C)OC(=O)Nc5cnc(C(=O)N(C)C)nc5)cc4s3)cc(C)cc2n1` [Example 468, (2R,3S)-3-((5-fluoro-2-(2-methoxy-7-methylquinoxalin-5-yl)benzo[d]thiazol-6-yl)oxy)butan-2-yl (2-(dimethylcarbamoyl)pyrimidin-5-yl)carbamate]: the negative-log IC50 (pIC50) is 9.10.

With `COc1cnc2c(-c3nc4cc(F)c(O[C@@H](C)[C@@H](C)OC(=O)Nc5cncc(C#N)c5)cc4s3)cc(Cl)cc2n1` [Example 826, (2R,3S)-3-((2-(7-chloro-2-methoxyquinoxalin-5-yl)-5-fluorobenzo[d]thiazol-6-yl)oxy)butan-2-yl (5-cyanopyridin-3-yl)carbamate], the pIC50 is 8.72.
